The values that follow are results of earlier work, collected in patent US12208104B2, “Pharmaceutical compositions suitable for articular delivery and use thereof in treatment of joint pain” (TAIWAN LIPOSOME CO., LTD., priority 2018, dated 2025).

This series relates to cartilage. Conditions: repeated intra-articular injections.

On to `C[C@@H]1C[C@H]2[C@@H]3CCC4=CC(=O)C=C[C@]4(C)[C@@]3(F)[C@@H](O)C[C@]2(C)[C@@]1(O)C(=O)CO` [dexamethasone], for which the cartilage damage result was “cartilage damage has been reported”.
On to `C[C@]12C=CC(=O)C=C1CC[C@H]1[C@@H]3C[C@@H](O)[C@](O)(C(=O)CO)[C@@]3(C)C[C@H](O)[C@@]12F` [triamcinolone], for which the cartilage damage entry is recorded as “cartilage damage has been reported”.
